Data: PubChem BioAssay (NCI)
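The compound was tested at five concentrations on cells cultured in 96-well plates, with a 48-hour exposure period. GI50 = concentration required for 50% inhibition of growth. TGI marks complete inhibition of growth.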

Legend:
Assay in all cases: DTP human tumour cell line panel, 48 h
786-0 renal = system: 786-0 renal
A498 renal = system: A498 renal
A549 NSCLC = system: A549 NSCLC
ACHN renal = system: ACHN renal
BT-549 breast = system: BT-549 breast
CAKI-1 renal = system: CAKI-1 renal
CCRF-CEM leukemia = system: CCRF-CEM leukemia
COLO 205 colon = system: COLO 205 colon
DU-145 prostate = system: DU-145 prostate
EKVX NSCLC = system: EKVX NSCLC
HCC-2998 colon = system: HCC-2998 colon
HCT-116 colon = system: HCT-116 colon
HCT-15 colon = system: HCT-15 colon
HL-60(TB) leukemia = system: HL-60(TB) leukemia
HOP-62 NSCLC = system: HOP-62 NSCLC
HOP-92 NSCLC = system: HOP-92 NSCLC
HS 578T breast = system: HS 578T breast
HT29 colon = system: HT29 colon
IGROV1 ovarian = system: IGROV1 ovarian
K-562 leukemia = system: K-562 leukemia
KM12 colon = system: KM12 colon
LOX IMVI melanoma = system: LOX IMVI melanoma
M14 melanoma = system: M14 melanoma
MALME-3M melanoma = system: MALME-3M melanoma
MCF7 breast = system: MCF7 breast
MDA-MB-231 breast = system: MDA-MB-231 breast
MDA-MB-435 = system: MDA-MB-435
MOLT-4 leukemia = system: MOLT-4 leukemia
NCI-H226 lung = system: NCI-H226 lung
NCI-H23 lung = system: NCI-H23 lung
NCI-H460 lung = system: NCI-H460 lung
NCI-H522 lung = system: NCI-H522 lung
NCI/ADR-RES ovarian = system: NCI/ADR-RES ovarian
OVCAR-3 ovarian = system: OVCAR-3 ovarian
OVCAR-4 ovarian = system: OVCAR-4 ovarian
OVCAR-5 ovarian = system: OVCAR-5 ovarian
OVCAR-8 ovarian = system: OVCAR-8 ovarian
PC-3 prostate = system: PC-3 prostate
RPMI-8226 leukemia = system: RPMI-8226 leukemia
RXF 393 renal = system: RXF 393 renal
SF-268 CNS = system: SF-268 CNS
SF-295 CNS = system: SF-295 CNS
SF-539 CNS = system: SF-539 CNS
SK-MEL-2 melanoma = system: SK-MEL-2 melanoma
SK-MEL-28 melanoma = system: SK-MEL-28 melanoma
SK-MEL-5 melanoma = system: SK-MEL-5 melanoma
SK-OV-3 ovarian = system: SK-OV-3 ovarian
SN12C renal = system: SN12C renal
SNB-19 CNS = system: SNB-19 CNS
SNB-75 CNS = system: SNB-75 CNS
SR leukemia = system: SR leukemia
SW-620 colon = system: SW-620 colon
T-47D breast = system: T-47D breast
TK-10 renal = system: TK-10 renal
U251 CNS = system: U251 CNS
UACC-257 melanoma = system: UACC-257 melanoma
UACC-62 melanoma = system: UACC-62 melanoma
UO-31 renal = system: UO-31 renal

O=C(Nc1cc(Oc2cc(F)c(NC(=O)C3(C(=O)Nc4ccc(F)cc4)CC3)cc2F)ccn1)C1CC1 showed a GI50 (786-0 renal) of 3.98 µM, a TGI (786-0 renal) of over 50.1 µM and a GI50 (A498 renal) of 2410 nM. It also gave a TGI (A498 renal) of 5.18 µM, a GI50 (A549 NSCLC) of 3.21 µM and a TGI (A549 NSCLC) of over 36.6 µM. It also gave a GI50 (ACHN renal) of 2870 nM, a TGI (ACHN renal) of over 100 µM and a GI50 (BT-549 breast) of 3.07 µM. For the same compound, the TGI (BT-549 breast) was 7.09 µM, the GI50 (CAKI-1 renal) was 3.77 µM and the TGI (CAKI-1 renal) was over 100 µM. It also gave a GI50 (CCRF-CEM leukemia) of 2390 nM, a TGI (CCRF-CEM leukemia) of 7.59 µM and a GI50 (COLO 205 colon) of 1400 nM. For the same compound, the TGI (COLO 205 colon) was 3.27 µM, the GI50 (DU-145 prostate) was 3.27 µM and the TGI (DU-145 prostate) was over 100 µM. The GI50 (EKVX NSCLC) was 2420 nM, the TGI (EKVX NSCLC) was 5.51 µM and the GI50 (HCC-2998 colon) was 3.5 µM. It also gave a TGI (HCC-2998 colon) of over 29.4 µM, a GI50 (HCT-116 colon) of 2270 nM and a TGI (HCT-116 colon) of over 100 µM. It also gave a GI50 (HCT-15 colon) of 3000 nM, a TGI (HCT-15 colon) of over 54.2 µM and a GI50 (HL-60(TB) leukemia) of 2180 nM. For the same compound, the TGI (HL-60(TB) leukemia) was 5.6 µM, the GI50 (HOP-62 NSCLC) was 2760 nM and the TGI (HOP-62 NSCLC) was 8.71 µM. For the same compound, the GI50 (HOP-92 NSCLC) was 590 nM, the TGI (HOP-92 NSCLC) was 5.86 µM and the GI50 (HS 578T breast) was 2500 nM. The TGI (HS 578T breast) was 6.82 µM, the GI50 (HT29 colon) was 929 nM and the TGI (HT29 colon) was 4.74 µM. It also gave a GI50 (IGROV1 ovarian) of 2850 nM, a TGI (IGROV1 ovarian) of 7.61 µM and a GI50 (K-562 leukemia) of 1900 nM. It also gave a TGI (K-562 leukemia) of over 100 µM, a TGI (KM12 colon) of 7.42 µM and a GI50 (LOX IMVI melanoma) of 2200 nM. It also gave a TGI (LOX IMVI melanoma) of 6.25 µM, a GI50 (M14 melanoma) of 1530 nM and a TGI (M14 melanoma) of 5.23 µM. It also gave a GI50 (MALME-3M melanoma) of 324 nM, a TGI (MALME-3M melanoma) of 2470 nM and a GI50 (MCF7 breast) of 936 nM. The TGI (MCF7 breast) was 9.55 µM, the GI50 (MDA-MB-231 breast) was 2430 nM and the TGI (MDA-MB-231 breast) was over 100 µM. For the same compound, the GI50 (MDA-MB-435) was 1530 nM, the TGI (MDA-MB-435) was 4.26 µM and the GI50 (MOLT-4 leukemia) was 2180 nM. It also gave a TGI (MOLT-4 leukemia) of 7.1 µM, a GI50 (NCI-H226 lung) of 2530 nM and a TGI (NCI-H226 lung) of 7.98 µM. The GI50 (NCI-H23 lung) was 1310 nM, the TGI (NCI-H23 lung) was 6.02 µM and the GI50 (NCI-H460 lung) was 3.27 µM. It also gave a TGI (NCI-H460 lung) of over 34.7 µM, a GI50 (NCI-H522 lung) of 2180 nM and a TGI (NCI-H522 lung) of 5.84 µM. It also gave a GI50 (NCI/ADR-RES ovarian) of 2790 nM, a TGI (NCI/ADR-RES ovarian) of 8.73 µM and a GI50 (OVCAR-3 ovarian) of 3.69 µM. It also gave a TGI (OVCAR-3 ovarian) of 13.1 µM, a GI50 (OVCAR-4 ovarian) of 3.93 µM and a TGI (OVCAR-4 ovarian) of over 30.8 µM. It also gave a GI50 (OVCAR-5 ovarian) of 3.12 µM, a TGI (OVCAR-5 ovarian) of over 100 µM and a GI50 (OVCAR-8 ovarian) of 3.25 µM. The TGI (OVCAR-8 ovarian) was over 31.6 µM, the GI50 (PC-3 prostate) was 2510 nM and the TGI (PC-3 prostate) was 6.85 µM. It also gave a GI50 (RPMI-8226 leukemia) of 2950 nM, a TGI (RPMI-8226 leukemia) of 6.51 µM and a GI50 (RXF 393 renal) of 2490 nM. For the same compound, the TGI (RXF 393 renal) was 4.91 µM, the GI50 (SF-268 CNS) was 3.09 µM and the TGI (SF-268 CNS) was over 28.5 µM. It also gave a GI50 (SF-295 CNS) of 2210 nM, a TGI (SF-295 CNS) of 9.91 µM and a GI50 (SF-539 CNS) of 1830 nM. It also gave a TGI (SF-539 CNS) of 4.14 µM, a GI50 (SK-MEL-2 melanoma) of 1350 nM and a TGI (SK-MEL-2 melanoma) of 3.64 µM. It also gave a GI50 (SK-MEL-28 melanoma) of 1640 nM, a TGI (SK-MEL-28 melanoma) of 6.33 µM and a GI50 (SK-MEL-5 melanoma) of 1520 nM. The TGI (SK-MEL-5 melanoma) was 3.47 µM, the GI50 (SK-OV-3 ovarian) was 4.04 µM and the TGI (SK-OV-3 ovarian) was over 29.9 µM. It also gave a GI50 (SN12C renal) of 2680 nM, a TGI (SN12C renal) of over 100 µM and a GI50 (SNB-19 CNS) of 3.75 µM. It also gave a TGI (SNB-19 CNS) of over 100 µM, a GI50 (SNB-75 CNS) of 1490 nM and a TGI (SNB-75 CNS) of 3.16 µM. It also gave a GI50 (SR leukemia) of 1700 nM, a TGI (SR leukemia) of 5.38 µM and a GI50 (SW-620 colon) of 3.12 µM. For the same compound, the TGI (SW-620 colon) was over 100 µM, the GI50 (T-47D breast) was 2330 nM and the TGI (T-47D breast) was 6.61 µM. It also gave a GI50 (TK-10 renal) of 4.14 µM, a TGI (TK-10 renal) of over 100 µM and a GI50 (U251 CNS) of 3.96 µM. For the same compound, the TGI (U251 CNS) was over 46.3 µM, the GI50 (UACC-257 melanoma) was 2080 nM and the TGI (UACC-257 melanoma) was 6.32 µM. For the same compound, the GI50 (UACC-62 melanoma) was 1190 nM, the TGI (UACC-62 melanoma) was 5.6 µM and the GI50 (UO-31 renal) was 2680 nM. It also gave a TGI (UO-31 renal) of 7.23 µM.
